| SMILES | melting point |
| --- | --- |
| COc1ccc2c(c1)C(=O)C(=O)C1=C2OC2(CCN(C(=O)Oc3cccc(C(F)(F)F)c3)CC2)CS1 | 233 to 234 °C |
| O=C1C(=O)c2ccc(-c3ccccc3)cc2C2=C1SCC1(CCN(C(=O)Oc3cccc(C(F)(F)F)c3)CC1)O2 | 188 to 190 °C |
| COc1ccc2c(c1)C1=C(SCC3(CCN(Cc4ccc(F)cc4)CC3)O1)C(=O)C2=O | 196 to 197 °C |
| O=C1C(=O)c2ccc(-c3ccccc3)cc2C2=C1SCC1(CCN(Cc3ccc(F)cc3)CC1)O2 | 197 to 198 °C |
| O=C1C(=O)c2ccccc2C2=C1SCC1(CCN(CCCOc3ccc(Cl)cc3)CC1)O2 | 130 to 132 °C |
| O=C1C(=O)c2ccccc2C2=C1SCC1(CCN(CCCOc3ccc(F)cc3)CC1)O2 | 164 to 165 °C |
| COc1ccc2c(c1)C(=O)C(=O)C1=C2OC2(CCN(Cc3ccc(F)cc3)CC2)CS1 | 219 to 221 °C |
| O=C1C(=O)c2ccc(Br)cc2C2=C1SCC1(CCN(Cc3ccc(F)cc3)CC1)O2 | 210 to 211 °C |
| O=C1C(=O)c2ccccc2C2=C1SCC1(CCN(CC(O)Cc3ccc(Cl)cc3)CC1)O2 (centres unmarked) | 195 to 196 °C |
| O=C1C(=O)c2ccc(Br)cc2C2=C1SCC1(CCN(C[C@@H](O)Cc3ccccc3)CC1)O2 | 82 to 83 °C |
| CC(C)(C)c1ccc(OC[C@@H](O)CN2CCC3(CC2)CSC2=C(O3)c3cc(Br)ccc3C(=O)C2=O)cc1 | 150 to 152 °C |
| CC(C)(C)c1ccc(OC[C@@H](O)CN2CCC3(CC2)CSC2=C(O3)c3cc(F)ccc3C(=O)C2=O)cc1 | 114 to 116 °C |
| O=C1C(=O)c2ccc(Cl)cc2C2=C1SCC1(CCN(C[C@@H](O)Cc3ccccc3)CC1)O2 | 92 to 96 °C |
| O=C1C(=O)c2ccc(Cl)cc2C2=C1SCC1(CCN(C[C@H](O)Cc3ccccc3)CC1)O2 | 92 to 93 °C |
| CC(C)(C)c1ccc(OC[C@H](O)CN2CCC3(CC2)CSC2=C(O3)c3cc(-c4ccccc4)ccc3C(=O)C2=O)cc1 | 94 to 97 °C |
| COc1ccc2c(c1)C(=O)C(=O)C1=C2OC2(CCN(C[C@@H](O)COc3ccc(C(C)(C)C)cc3)CC2)CS1 | 188 to 190 °C |
| COc1ccc2c(c1)C(=O)C(=O)C1=C2OC2(CCN(C[C@H](O)COc3ccc(Cl)cc3)CC2)CS1 | 189 to 191 °C |
| COc1ccc2c(c1)C(=O)C(=O)C1=C2OC2(CCN(C[C@H](O)COc3ccc(F)cc3)CC2)CS1 | 189 to 191 °C |
| COc1ccc2c(c1)C1=C(SCC3(CCN(C[C@H](O)Cc4ccccc4)CC3)O1)C(=O)C2=O | 106 °C |
| COc1ccc2c(c1)C1=C(SCC3(CCN(C[C@H](O)COc4ccc(Cl)cc4)CC3)O1)C(=O)C2=O | 109 to 110 °C |
| CC(C)(C)c1ccc(OC[C@@H](O)CN2CCC3(CC2)CSC2=C(O3)c3cc(-c4ccccc4)ccc3C(=O)C2=O)cc1 | 151 to 152 °C |
| CC(C)(C)c1ccc(OC[C@@H](O)CN2CCC3(CC2)CSC2=C(O3)c3cc(N4CCOCC4)ccc3C(=O)C2=O)cc1 | 107 to 109 °C |

| SMILES | melting point |
| --- | --- |
| O=C1C(=O)c2ccccc2C2=C1SCC1(CCN(C[C@H](O)COc3ccc4cc(Br)ccc4c3)CC1)O2 | 183 to 184 °C |
| O=C1C(=O)c2ccc(Br)cc2C2=C1SCC1(CCN(C[C@H](O)COc3ccc4cc(Br)ccc4c3)CC1)O2 | 104 to 105 °C |
| O=C1C(=O)c2ccc(F)cc2C2=C1SCC1(CCN(C[C@H](O)Cc3ccccc3)CC1)O2 | 76 to 77 °C |
| O=C1C(=O)c2ccccc2C2=C1SCC1(CCN(C[C@H](O)COc3ccc4ccccc4c3)CC1)O2 | 164 to 167 °C |
| O=C1C(=O)c2ccc(Br)cc2C2=C1SCC1(CCN(C[C@H](O)Cc3ccccc3)CC1)O2 | 82 to 84 °C |
| O=C1C(=O)c2ccc(-c3ccccc3)cc2C2=C1SCC1(CCN(C[C@H](O)COc3ccc(F)cc3)CC1)O2 | 173 to 175 °C |
| O=C1C(=O)c2ccc(-c3ccccc3)cc2C2=C1SCC1(CCN(C[C@H](O)COc3ccc(Cl)cc3)CC1)O2 | 93 to 98 °C |
| COc1ccc2c(c1)C1=C(SCC3(CCN(C[C@H](O)COc4ccc(C(C)(C)C)cc4)CC3)O1)C(=O)C2=O | 153 to 156 °C |
| O=C1C(=O)c2ccc(N3CCCCC3)cc2C2=C1SCC1(CCNCC1)O2 | 300 °C (dec.) |
| O=C1C(=O)c2ccc(-c3ccncc3)cc2C2=C1SCC1(CCNCC1)O2 | 223 to 228 °C |
| O=C1C(=O)c2ccc(-c3cccnc3)cc2C2=C1SCC1(CCNCC1)O2 | 213 to 215 °C |
| O=C1C(=O)c2ccc(-c3cccc(C(F)(F)F)c3)cc2C2=C1SCC1(CCNCC1)O2 | 199 to 203 °C |
| O=C1C(=O)c2ccc(-c3ccc(C(F)(F)F)cc3)cc2C2=C1SCC1(CCNCC1)O2 | 190 to 240 °C |
| O=C1C(=O)c2ccc(-c3ccccc3)cc2C2=C1SCC1(CCNCC1)O2 | 83 to 87 °C |
| O=C1C(=O)c2ccccc2C2=C1SCC1(CCN(C(=O)c3ccc(-n4cccn4)cc3)CC1)O2 | 299 to 300 °C |
| COc1ccc2c(c1)C(=O)C(=O)C1=C2OC2(CCN(C(=O)c3cccc(Cl)c3)CC2)CS1 | 130 °C (dec.) |
| O=C1C(=O)c2ccc(-c3cccnc3)cc2C2=C1SCC1(CCN(C(=O)c3cccc(Cl)c3)CC1)O2 | 240 to 242 °C |
| O=C1C(=O)c2ccc(-c3ccncc3)cc2C2=C1SCC1(CCN(C(=O)c3cccc(Cl)c3)CC1)O2 | 265 to 267 °C |
| O=C1C(=O)c2ccc(Cl)cc2C2=C1SCC1(CCN(C(=O)c3cccc(Cl)c3)CC1)O2 | 125 to 130 °C |
| O=C1C(=O)c2ccc(Br)cc2C2=C1SCC1(CCN(C(=O)c3cccc(Cl)c3)CC1)O2 | 135 to 140 °C |
| COc1ccc2c(c1)C1=C(SCC3(CCN(C(=O)c4cccc(Cl)c4)CC3)O1)C(=O)C2=O | 125 to 127 °C |
| O=C1C(=O)c2ccc(Br)cc2C2=C1SCC1(CCN(C(=O)Oc3cccc(C(F)(F)F)c3)CC1)O2 | 210 to 211 °C |

Continued, values first:

| melting point | SMILES |
| --- | --- |
| 111 to 114 °C | O=C1C(=O)c2ccccc2C2=C1SCC1(CCCN(C(=O)Oc3cccc(C(F)(F)F)c3)CC1)O2 (centres unmarked) |
| 95 to 99 °C | O=C1C(=O)c2ccccc2C2=C1SCC1(CCCN(C(=O)Oc3cccc(C(F)(F)F)c3)C1)O2 (centres unmarked) |
| 70 to 73 °C | O=C1C(=O)c2ccccc2C2=C1SCC1(CCN(C3CCN(C(=O)Oc4cccc(C(F)(F)F)c4)CC3)CC1)O2 |
| 155 to 159 °C | O=C1C(=O)c2ccccc2C2=C1SCC1(CCN(CC3CCCO3)CC1)O2 (centres unmarked) |
| 135 to 137 °C | O=C1C(=O)c2ccccc2C2=C1SCC1(CCN(CC3CCCCO3)CC1)O2 (centres unmarked) |
| 104 to 107 °C | O=C1C(=O)c2ccccc2C2=C1SCC1(CCN(Cc3ccc(F)cc3F)CC1)O2 |
| 145 to 147 °C | O=C1C(=O)c2ccccc2C2=C1SCC1(CCN(CCCCc3ccccc3)CC1)O2 |
| 197 to 198 °C | CC(C)N1CCC2(CC1)CSC1=C(O2)c2ccccc2C(=O)C1=O |
| 117 to 118 °C | O=C1C(=O)c2ccccc2C2=C1SCC1(CCN(CCc3ccccc3)CC1)O2 |
| 110 to 113 °C | O=C1C(=O)c2ccccc2C2=C1SCC1(CCN(C3CCCC3O)CC1)O2 (centres unmarked) |
| 180 to 182 °C | CCC(O)CN1CCC2(CC1)CSC1=C(O2)c2ccccc2C(=O)C1=O (centres unmarked) |
| 97 to 99 °C | CC(C)OCC(O)CN1CCC2(CC1)CSC1=C(O2)c2ccccc2C(=O)C1=O (centres unmarked) |
| 65 to 67 °C | O=C1C(=O)c2ccccc2C2=C1SCC1(CCCN(C[C@H](O)Cc3ccccc3)C1)O2 (some centres unmarked) |
| 59 to 60 °C | O=C1C(=O)c2ccccc2C2=C1SCC1(CCCN(C[C@@H](O)Cc3ccccc3)C1)O2 (some centres unmarked) |
| 190 to 193 °C | CC(C)(C)c1ccc(OC[C@@H](O)CN2CCC(N3CCC4(CC3)CSC3=C(O4)c4ccccc4C(=O)C3=O)CC2)cc1 |
| 146 to 147 °C | COc1ccc2c(c1)C(=O)C(=O)C1=C2OC2(CCN(C[C@@H](O)Cc3ccccc3)CC2)CS1 |
| 145 to 147 °C | COc1ccc2c(c1)C(=O)C(=O)C1=C2OC2(CCN(C[C@H](O)Cc3ccccc3)CC2)CS1 |
| 110 °C | COc1ccc2c(c1)C1=C(SCC3(CCN(C[C@@H](O)Cc4ccccc4)CC3)O1)C(=O)C2=O |

| melting point | SMILES |
| --- | --- |
| 122 to 124 °C | COC(=O)Cc1ccc(OC[C@H](O)CN2CCC3(CC2)CSC2=C(O3)c3ccccc3C(=O)C2=O)cc1 |
| 172 to 174 °C | O=C1C(=O)c2ccccc2C2=C1SCC1(CCN(c3cc(Cl)ncn3)CC1)O2 |
| 153 to 158 °C | Cc1ccc(S(=O)(=O)NC(=O)N2CCC3(CC2)CSC2=C(O3)c3ccccc3C(=O)C2=O)cc1 |
| 231 to 233 °C | CC(C)(C)OC(=O)N1CCC2(CC1)CSC1=C(O2)c2cc(-c3cccc(C(F)(F)F)c3)ccc2C(=O)C1=O |
| 217 to 219 °C | CC(C)(C)OC(=O)N1CCC2(CC1)CSC1=C(O2)c2cc(-c3cccnc3)ccc2C(=O)C1=O |
| 225 to 227 °C | CC(C)(C)OC(=O)N1CCC2(CC1)CSC1=C(O2)c2cc(-c3ccncc3)ccc2C(=O)C1=O |
| 243 to 244 °C | CC(C)(C)OC(=O)N1CCC2(CC1)CSC1=C(O2)c2cc(N3CCOCC3)ccc2C(=O)C1=O |
| 94 to 100 °C | Cl.O=C1C(=O)c2ccccc2C2=C1SCC1(CCN(C(=O)C3CCNCC3)CC1)O2 |
| 200 to 202 °C | Cl.O=C1C(=O)c2ccccc2C2=C1SCC1(CCN(C(=O)CC3CCNCC3)CC1)O2 |
| 194 to 195 °C | O=C1C(=O)c2ccccc2C2=C1SCC1(CCCCC1)O2 |
| 195 to 197 °C | O=C1C(=O)c2ccccc2C2=C1SCC1(CCOCC1)O2 |
| 221 to 223 °C | O=C1C(=O)c2ccccc2C2=C1SCC1(CCSCC1)O2 |
| 224 to 225 °C | CC(C)(C)OC(=O)NC1CCC2(CC1)CSC1=C(O2)c2ccccc2C(=O)C1=O (centres unmarked) |
| 256 to 257 °C | Cl.NC1CCC2(CC1)CSC1=C(O2)c2ccccc2C(=O)C1=O (centres unmarked) |
| 160 to 162 °C | O=C1C(=O)c2ccccc2C2=C1SCC1(CCN(C(=O)c3cccc([N+](=O)[O-])c3)CC1)O2 |
| 98 to 100 °C | O=C1C(=O)c2ccccc2C2=C1SCC1(CCCN(C(=O)c3cccc(Cl)c3)CC1)O2 (centres unmarked) |
| 266 to 268 °C | O=C1C(=O)c2ccccc2C2=C1SCC1(CCN(C(=O)c3nc4ccccc4[nH]3)CC1)O2 |
| 218 to 220 °C | NC(=O)N1CCC2(CC1)CSC1=C(O2)c2ccccc2C(=O)C1=O |

From patent publication US7902354B2, “Lapachone compounds and methods of use thereof” (ArQule, Inc., priority 2006, dated 2011)
